From article PMC6143625, “A high throughput screen for next-generation leads targeting malaria parasite transmission” (Nature Communications, 2018)

Experiments:
[1] = Stability analysis of DDD599/BPCA (pH buffers, simulated gastric fluid, glutathione); format: physicochemical
Procedure: (§1) DMPK analyses were performed by the Dundee University Drug Discovery Unit and BPCA/DDD599 stability analysis were undertaken by chemists at GlaxoSmithKline using in-house, standardised approaches.
123 Supplementary Table 1. Stability analysis of DDD599/BPCA pH10 Ox pH10 pH6 Ox pH6 pH4 Ox pH4 SGF Ox SGF GSH
Additionally, it was also tested in the presence of glutathione. Green text denoted acceptable 127 stability and red text denotes unacceptable stability under test conditions. At pH10 regardless of the presence of 128 H2O2, DDD599/BPCA was unfavourably unstable. […]

[2] = system: P. falciparum male gametogenesis; experiment: Phenotypic immunofluorescence assay of male gamete formation; format: cell-based, Plasmodium falciparum; details: 10 µM, 24 h treatment, 0–20 min post induction
Procedure: In vitro evolution followed by whole-genome analysis is the primary approach currently used for understanding how compounds act in malaria parasites. As it is not currently feasible to generate resistant mutants to compounds that are only active in the gametocyte stage (resistance generation requires extensive rounds of replication in the presence of compound), phenotypic immunofluorescence assays were performed to evaluate compound activity on male gamete formation. Gametocytes treated with 10 µM of each compound were sampled at 0, 2, 3, 4, 6, 8, 10, and 20 min post induction of gamete formation before imaging (Fig. 4). Individual male cells were then extracted from the images and analysed for shape and haploid chromosome number/DNA content to quantitatively measure the progression of DNA replication (n = 198–668 cells) (Fig. 5a).
Day 14 gametocyte culture was divided into 4 ml aliquots and treated either with DMSO or 10 µM test compound. After 24 h, 500 µl aliquots of the non-activated gametocytes were fixed in an equal volume of 8% paraformaldehyde (PFA) warmed to 37 °C to generate Time = 0 min (t = 0) samples. Gamete formation was induced in the remainder of the cultures by cooling to RT and addition of 500 µl ookinete medium. At t = 2, 3, 4, 6, 8, 10, and 20 min 500 µl of culture was removed and immediately fixed in equal volume of 8% PFA at room temperature for 15 min. Fixed cells were diluted in PBS and allowed to settle onto poly-L-lysine-coated glass coverslips overnight. The next day, cells were washed in PBS, permeabilized in 0.1% Triton X-100 and blocked in PBS + 10% FBS. Cells were stained with mouse anti-alpha tubulin (Sigma) clone DM1A (1:500 dilution) and rabbit anti-Glycophorin A (Abcam) clone EPR8200 (1:1000 dilution). Staining was visualised with anti-mouse […] and anti-rabbit Alexa555 (Thermo-Fisher) both at 1:1000 dilution. Coverslips were mounted onto glass slides with VectaShield mountant (Vector Laboratories) containing 4′,6-diamidino-2-phenylindole (DAPI) to visualise cellular DNA. Cells were imaged at random (n = 195–668 cells per test compound) using a Nikon Ti-E widefield microscope using a × 100 objective lens and taken in 0.2 µm slice z-stack images to capture the whole cell. All images were converted to maximum intensity projections in NIS Elements v4.20 and all further image processing performed in ICY. Individual cells were manually selected and automatically extracted from each image using the Active Contours plugin gated to the tubulin staining. Using the ROI Statistics plugin, the following parameters were calculated for each cell and exported to MS Excel: Cell area, Cell roundness, Cell elongation, and Average intensity of blue channel (DNA). […] Outlier cells from the curve were all exflagellating (Supplementary Fig. 6). These two parameters were combined as a ratio of roundness:elongation to produce the parameter Cell shape. Cellular DNA content was estimated by multiplying the average pixel intensity of the blue channel (after subtracting the background intensity of an empty area in the same parent image) with the total cell area.

[3] = Pharmacokinetic analysis in naïve mice; format: in vivo, BALB/c mice
Procedure: DDD291 and DDD881 were then evaluated for in vivo transmission-blocking activity in a mouse model of transmission. […] DDD881 was also administered similarly on day 4 of infection only 30 min prior to mosquito feed in a separate cohort of mice (Supplementary Data 5).
Eight phenylhydrazine-treated mice were infected with P. berghei constitutively expressing GFP. On day 3 of infection, they were assigned into four groups of two mice (DMSO A + B; DDD291 A + B; DDD881 A + B and C + D). Three groups received either 50 mg kg^−1 DDD291, 50 mg kg^−1 DDD881 or DMSO + vehicle control by IP injection. […] The fourth group received a 50 mg kg^−1 DDD881 dose on day 4, 30 min prior to mosquito feed. c Seven days after feeding, mosquitoes were dissected (n = 17–52 per condition) and oocysts recorded by fluorescent microscopy and automated image analysis. Horizontal bars indicate the mean. d PK analysis of DDD881. BALB/c mice were dosed with 50 mg kg^−1 DDD881 (n = 3) and plasma concentrations were monitored over time.

[4] = Aqueous solubility (DMPK); format: physicochemical; details: aqueous medium
Procedure: as §1

[5] = system: P. falciparum transmission to Anopheles stephensi mosquitoes; experiment: P. falciparum standard membrane-feeding assay (SMFA), luciferase oocyst readout; format: in vivo, Plasmodium falciparum; details: 10 µM
[6] = Mouse liver microsome clearance; format: in vitro ADME
Procedure: as §1

[7] = Parallel artificial membrane permeability assay (PAMPA); format: in vitro ADME
Procedure: as §1

[8] = mouse, plasma, intraperitoneal, 50 mg kg^−1, BALB/c mice, n = 3

In the case of O=C(CCl)Nc1ccc(Br)cc1 [BPCA, N-(4-bromophenyl)-2-chloroacetamide], the remaining at 24 h ([1]; Britton Robinson pH4 buffer + 20M% H2O2, pH 4, pH4 Ox) is reported as 100%, the remaining at 24 h ([1]; Britton Robinson pH4 buffer, pH 4) is reported as 100% and the half-life ([1]; Britton Robinson pH4 buffer, pH 4, pH4 = Britton Robinson pH4) is reported as over 41.7 days. For the same molecule, the remaining at 24 h ([1]; Britton Robinson pH6 buffer + 20M% H2O2, pH 6, pH6 Ox) was 100%, the remaining at 24 h ([1]; Britton Robinson pH6 buffer, pH 6) was 100% and the remaining at 24 h ([1]; Britton Robinson pH10 buffer + 20M% H2O2, pH 10, pH10 Ox) was 87%. The remaining at 24 h ([1]; Britton Robinson pH10 buffer, pH 10) was 87%, the “t10% degradation / hours” value ([1]; GSH) was under 1 h and the remaining at 24 h ([1]; Phosphate buffer pH7.4 with 5mM Glutathione, pH 7.4, GSH) was 0%. For the same molecule, the “t10% degradation / hours” value ([1]; SGF) was 118 h, the half-life ([1]; SGF = Simulated Gastric Fluid) was 25.3 days and the “t10% degradation / hours” value ([1]; SGF Ox) was 512 h. It also gave a half-life ([1]; SGF Ox = Simulated Gastric Fluid + 20M% H2O2) of over 41.7 days, a remaining at 24 h ([1]; Simulated Gastric Fluid + 20M% H2O2, SGF Ox) of 99% and a remaining at 24 h ([1]; Simulated Gastric Fluid, SGF) of 98%. For the same molecule, the “t10% degradation / hours” value ([1]; pH4) was over 1000 h, the half-life ([1]; pH 4, pH4 Ox = Britton Robinson pH4 buffer + 20M% H2O2) was over 41.7 days and the “t10% degradation / hours” value ([1]; pH4 Ox) was over 1000 h. For the same molecule, the “t10% degradation / hours” value ([1]; pH6) was over 1000 h, the half-life ([1]; pH 6, pH6 = Britton Robinson pH6 buffer) was over 41.7 days and the half-life ([1]; pH 6, pH6 Ox = Britton Robinson pH6 buffer + 20M% H2O2) was over 41.7 days. The “t10% degradation / hours” value ([1]; pH6 Ox) was over 1000 h, the half-life ([1]; pH 7.4, GSH = Phosphate buffer pH7.4 with 5mM Glutathione) was under 0.0417 days and the “t10% degradation / hours” value ([1]; pH10) was 18 h. The half-life ([1]; pH 10, pH10 = Britton Robinson pH10 buffer) was 3.92 days, the half-life ([1]; pH 10, pH10 Ox = Britton Robinson pH10 buffer + 20M% H2O2) was 3.83 days and the “t10% degradation / hours” value ([1]; pH10 Ox) was 18 h. The “phenotype of male gametogenesis (IFA)” value [2] was “rounded up after induction but most cells did not replicate their DNA and none exflagellated”.

With O=S(=O)(NCC1(O)CCOc2ccccc21)c1ccc(Br)s1 (stereo not shown) [DDD01035881] the plasma concentration ([3]; 50 mg kg^−1, up to 120 min after dosing) was ~ 1000 ng ml^−1, the Cmax [3, 8] was 1580 ng/mL and the Tmax [3, 8] was 0.00346 days. For the same molecule, the solubility [4] was over 250 µM, the “phenotype of male gametogenesis (IFA)” value [2] was “only a few cells replicated their DNA and none exflagellated” and the “mean normalised luciferase intensity” value ([5]; direct mode) was 0.26. The “prevalence, % of DMSO control” value ([5]; direct mode) was 0.49%, the Average oocyst intensity ([5]; mode direct, per experiment) was 2.8 and the Prevalence ([5]; mode direct, per experiment) was 0.0%.

With OC1(CN2CCC(Oc3cccc(C(F)(F)F)c3)CC2)CCNC1 (stereo not shown) [DDD01245291] the solubility [4] was over 250 µM, the “mouse liver microsome clearance rate” value [6] was 4.2 ml min^−1 g^−1 Liver and the Papp [7] was 0.59 ×10⁻⁶ cm/s. The “phenotype of male gametogenesis (IFA)” value [2] was “arrested after rounding up”.

In the case of CC(C)CN1CCn2nc(CNc3ncnc4[nH]ccc34)cc2C1 [DDD01249504], the “phenotype of male gametogenesis (IFA)” value [2] is reported as “the second and third divisions were delayed with a smaller proportion of cells reaching 8n”.

For Cc1ccc(-c2cc(C(=O)NCCC3=CCCCC3)[nH]n2)o1 [DDD01255968], the “phenotype of male gametogenesis (IFA)” value [2] was “did not replicate their DNA and remained with 1n genome copies”.
